The compounds below were run against T1, PRMT5-MEP50 enzyme complex (Homo sapiens, UniProt O14744) (assay: In vitro PRMT5 enzyme activity assay (methylation of histone H4 arginine H4R3, ELISA absorbance at 450 nm)). Conditions: S-adenosylmethionine, histone H4 peptide, 2 hours at room temperature, 8 points 10 μM to 0.128 nM.
T1 construct: purchased BPS Bioscience (USA) 51045
Assay type: biochemical
Protocol: Method for Measuring Enzyme Activity
In vitro assay: PRMT5-MEP50 enzyme complex, cofactor S-adenosylmethionine (SAM) and histone H4 peptide were reacted in vitro, and methylation of arginine (H4R3) —which is the third amino acid of histone H4—was measured in order to measure the enzyme activity of PRMT5.
Reagents: PRMT5-MEP50 enzyme complex (Catalog No. 51045), blocking buffer (52100-B), histone methyltransferase reaction buffer 2 (4×HMT assay buffer 2, Catalog No. 52170), and primary antibody (primary antibody 4-3, Catalog No. 52150) were purchased from BPS Bioscience (USA). The histone H4 peptide (1-20 amino acids) was custom made by Komabiotech (Korea) and used. S-adenosylmethionine was purchased from NEB (New England Biolabs, USA, Catalog No. B9003S). Plates for coating histone H4 peptide, washing buffer and color development reagent were purchased from the following vendors: Plate (Immobilizer™-Amino Plate, NUNC, Denmark, Catalog No. 436023), carbonate-bicarbonate buffer (Sigma-Aldrich, USA, Catalog No. C3041), washing buffer (10×TBST, Biosesang, Korea, Catalog No. T2005), TMB ELISA substrate (Abcam, UK, Catalog No. ab210902), horseradish peroxidase (HRP)-conjugated antibody (Abcam, UK, Catalog No. ab6721).
Experimental procedure: The histone H4 peptide was diluted with carbonate-bicarbonate buffer and prepared to 100 μg/mL, and then dispensed onto the plate per 100 μL and reacted at 37° C. for 1 hour. PRMT5-MEP50 enzyme complex and S-adenosylmethionine were diluted with histone methyltransferase reaction buffer to prepare 5 μg/mL and 2 μM, respectively, and then 20 μL of PRMT5-MEP50 enzyme complex and 25 μL of S-adenosylmethionine were dispensed onto the plate prepared above. 5 μL of the compound diluted with 10% dimethyl sulfoxide solution was added thereto and reacted at room temperature for 2 hours (final volume=50 μL). The concentration of the compound was diluted 1:5 from 10 μM until the lowest concentration of 0.128 nM, and 8 points were used for the test. After preparing the primary antibody by diluting 1:2000 with blocking buffer, 100 μL was added to the plate and reacted at room temperature for 1 hour. After preparing horseradish peroxidase-conjugated antibody by diluting 1:10,000 with blocking buffer, 100 μL was added to the plate and reacted at room temperature for 1 hour. 100 μL of TMB substrate was added and reacted for 3 minutes at room temperature, and 100 μL of 1 N sulfuric acid was then added to terminate the reaction. Then, the absorbance at 450 nm was measured to calculate the IC50 value of the compound. (+++: 1 to 100 nM, ++: greater than 100 to 1,000 nM, +: greater than 1,000 to 10,000 nM)

T1 sequence (O14744 2-637 limits assumed): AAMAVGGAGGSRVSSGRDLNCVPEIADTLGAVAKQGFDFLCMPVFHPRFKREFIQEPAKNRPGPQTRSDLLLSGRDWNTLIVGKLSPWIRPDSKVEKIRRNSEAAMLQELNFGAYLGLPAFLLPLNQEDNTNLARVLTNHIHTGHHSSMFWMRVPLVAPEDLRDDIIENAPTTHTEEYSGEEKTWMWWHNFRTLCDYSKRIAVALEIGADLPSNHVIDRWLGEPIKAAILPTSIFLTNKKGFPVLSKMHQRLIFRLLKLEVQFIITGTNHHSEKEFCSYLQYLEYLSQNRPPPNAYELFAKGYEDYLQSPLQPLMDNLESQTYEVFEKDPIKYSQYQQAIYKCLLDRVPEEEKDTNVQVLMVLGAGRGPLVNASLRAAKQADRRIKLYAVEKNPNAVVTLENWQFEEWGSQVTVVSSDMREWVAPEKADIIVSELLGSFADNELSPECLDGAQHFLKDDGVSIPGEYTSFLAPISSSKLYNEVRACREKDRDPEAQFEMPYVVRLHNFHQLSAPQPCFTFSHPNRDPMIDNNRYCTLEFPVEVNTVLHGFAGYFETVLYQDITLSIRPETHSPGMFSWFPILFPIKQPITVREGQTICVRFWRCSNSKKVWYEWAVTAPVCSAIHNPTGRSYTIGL
T1 sequence (Q9BQA1 2-342 partner limits assumed): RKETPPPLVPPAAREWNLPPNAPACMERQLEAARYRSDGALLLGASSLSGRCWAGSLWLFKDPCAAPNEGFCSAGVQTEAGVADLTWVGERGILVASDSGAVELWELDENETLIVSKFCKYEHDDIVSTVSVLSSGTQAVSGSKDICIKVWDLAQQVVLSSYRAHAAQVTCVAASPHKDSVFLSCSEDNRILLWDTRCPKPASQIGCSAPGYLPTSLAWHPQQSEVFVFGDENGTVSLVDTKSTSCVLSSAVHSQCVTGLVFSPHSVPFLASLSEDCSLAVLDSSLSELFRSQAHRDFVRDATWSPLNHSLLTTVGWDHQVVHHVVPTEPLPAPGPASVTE

IC50	SMILES
0.001 to 0.1 µM	CN1CCCN(c2ccc3c(c2)CCN(C[C@H](O)CN2CCc4ccccc4C2)C3=O)CC1=O [Example 79, 2-[(2R)-3-(3,4-dihydro-1H-isoquinolin-2-yl)-2-hydroxy-propyl]-6-(4-methyl-3-oxo-1,4-diazepan-1-yl)-3,4-dihydroisoquinolin-1-one]
0.1 to 1 µM	CC(C)(C)OC(=O)N1CCC(c2ccc3c(c2)CCN(C[C@H](O)CN2CCc4ccccc4C2)C3=O)CC1 [Example 63, tert-butyl 4-[2-[(2R)-3-(3,4-dihydro-1H-isoquinolin-2-yl)-2-hydroxy-propyl]-1-oxo-3,4-dihydroisoquinolin-6-yl]piperidine-1-carboxylate]
0.1 to 1 µM	CC(=O)Nc1ccc2c(c1)CCN(C[C@H](O)CN1CCc3ccccc3C1)C2=O [Example 42, N-[2-[(2R)-3-(3,4-dihydro-1H-isoquinolin-2-yl)-2-hydroxy-propyl]-1-oxo-3,4-dihydroisoquinolin-6-yl]acetamide]
0.001 to 0.1 µM	O=C1c2ccc(NCC3CCOC3)cc2CCN1C[C@H](O)CN1CCc2ccccc2C1 (stereo partly drawn) [Example 30, 2-[(2R)-3-(3,4-dihydro-1H-isoquinolin-2-yl)-2-hydroxy-propyl]-6-(tetrahydrofuran-3-ylmethylamino)-3,4-dihydroisoquinolin-1-one]
0.1 to 1 µM	O=C1c2ccc(C#Cc3ccncc3)cc2CCN1C[C@H](O)CN1CCc2ccccc2C1 [Example 138, 2-[(2R)-3-(3,4-dihydro-1H-isoquinolin-2-yl)-2-hydroxypropyl]-6-[2-(4-pyridyl)ethynyl]-3,4-dihydroisoquinolin-1-one]
0.001 to 0.1 µM	CC(=O)N1CCN(c2ccc3c(c2)C2(CC2)CN(C[C@H](O)CN2CCc4ccccc4C2)C3=O)CC1 [Example 105, 6-(4-acetylpiperazin-1-yl)-2-[(2R)-3-(3,4-dihydro-1H-isoquinolin-2-yl)-2-hydroxy-propyl]spiro[3H-isoquinoline-4,1′-cyclopropane]-1-one]
0.1 to 1 µM	O=C1c2ccc(Cl)nc2CCN1C[C@H](O)CN1CCc2ccccc2C1 [Example 75, 2-chloro-6-[(2R)-3-(3,4-dihydro-1H-isoquinolin-2-yl)-2-hydroxy-propyl]-7,8-dihydro-1,6-naphthyridin-5-one]
0.1 to 1 µM	CC(=O)N1CCC(Oc2ccc3c(c2)CCN(C[C@H](O)CN2CCc4ccccc4C2)C3=O)CC1 [Example 95, 6-[(1-acetyl-4-piperidyl)oxy]-2-[(2R)-3-(3,4-dihydro-1H-isoquinolin-2-yl)-2-hydroxy-propyl]-3,4-dihydroisoquinolin-1-one]
0.001 to 0.1 µM	N#CN1CCN(c2ccc3c(c2)CCN(C[C@H](O)CN2CCc4ccccc4C2)C3=O)CC1 [Example 101, 4-[2-[(2R)-3-(3,4-dihydro-1H-isoquinolin-2-yl)-2-hydroxy-propyl]-1-oxo-3,4-dihydroisoquinolin-6-yl]piperazine-1-carbonitrile]
0.001 to 0.1 µM	CC(=O)N1CCN(c2ccc3c(n2)CCN(C[C@H](O)CN2CCc4ccccc4C2)C3=O)CC1 [Example 88, 2-(4-acetylpiperazin-1-yl)-6-[(2R)-3-(3,4-dihydro-1H-isoquinolin-2-yl)-2-hydroxy-propyl]-7,8-dihydro-1,6-naphthyridin-5-one]
0.001 to 0.1 µM	O=C1c2ccc(N3CC4(COC4)C3)cc2CCN1C[C@H](O)CN1CCc2ccccc2C1 [Example 44, 2-[(2R)-3-(3,4-dihydro-1H-isoquinolin-2-yl)-2-hydroxy-propyl]-6-(2-oxa-6-azaspiro[3.3]heptan-6-yl)-3,4-dihydroisoquinolin-1-one]
0.1 to 1 µM	O=C1c2ccc(N3CCCC3)cc2CCN1C[C@H](O)CN1CCc2ccccc2C1 [Example 2, 2-[(2R)-3-(3,4-dihydro-1H-isoquinolin-2-yl)-2-hydroxy-propyl]-6-pyrrolidin-1-yl-3,4-dihydroisoquinolin-1-one]
0.1 to 1 µM	O=C(Nc1ccc2c(c1)CCN(C[C@H](O)CN1CCc3ccccc3C1)C2=O)c1ccncc1 [Example 27, N-[2-[(2R)-3-(3,4-dihydro-1H-isoquinolin-2-yl)-2-hydroxy-propyl]-1-oxo-3,4-dihydroisoquinolin-6-yl]pyridine-4-carboxamide]
0.001 to 0.1 µM	O=C1c2ccc(-c3ccc(F)nc3)cc2CCN1C[C@H](O)CN1CCc2ccccc2C1 [Example 15, 2-[(2R)-3-(3,4-dihydro-1H-isoquinolin-2-yl)-2-hydroxy-propyl]-6-(6-fluoro-3-pyridyl)-3,4-dihydroisoquinolin-1-one]
0.001 to 0.1 µM	O=C1c2ccc(-c3ccncc3)cc2CCN1C[C@H](O)CN1CCc2ccccc2C1 [Example 8, 2-[(2R)-3-(3,4-dihydro-1H-isoquinolin-2-yl)-2-hydroxy-propyl]-6-(4-pyridyl)-3,4-dihydroisoquinolin-1-one]
0.001 to 0.1 µM	O=C1c2ccc(NCC3CCCCC3)cc2CCN1C[C@H](O)CN1CCc2ccccc2C1 [Example 6, 6-(cyclohexylmethylamino)-2-[(2R)-3-(3,4-dihydro-1H-isoquinolin-2-yl)-2-hydroxy-propyl]-3,4-dihydroisoquinolin-1-one]
0.1 to 1 µM	CCN1CCC(Oc2ccc3c(c2)CCN(C[C@H](O)CN2CCc4ccccc4C2)C3=O)C1 (stereo partly drawn) [Example 134, 2-[(2R)-3-(3,4-dihydro-1H-isoquinolin-2-yl)-2-hydroxy-propyl]-6-(1-ethylpyrrolidin-3-yl)oxy-3,4-dihydroisoquinolin-1-one]
0.001 to 0.1 µM	O=C1c2ccc(N3CCC(CO)CC3)cc2CCN1C[C@H](O)CN1CCc2ccccc2C1 [Example 35, 2-[(2R)-3-(3,4-dihydro-1H-isoquinolin-2-yl)-2-hydroxy-propyl]-6-[4-(hydroxymethyl)-1-piperidyl]-3,4-dihydroisoquinolin-1-one]
0.1 to 1 µM	CN(C)CC#Cc1ccc2c(c1)CCN(C[C@H](O)CN1CCc3ccccc3C1)C2=O [Example 141, 2-[(2R)-3-(3,4-dihydro-1H-isoquinolin-2-yl)-2-hydroxypropyl]-6-[3-(dimethylamino)prop-1-ynyl]-3,4-dihydroisoquinolin-1-one]
0.001 to 0.1 µM	COCCN(C)C1CCN(c2ccc3c(c2)CCN(C[C@H](O)CN2CCc4ccccc4C2)C3=O)CC1 [Example 120, 2-[(2R)-3-(3,4-dihydro-1H-isoquinolin-2-yl)-2-hydroxy-propyl]-6-[4-[2-methoxyethyl(methyl)amino]-1-piperidyl]-3,4-dihydroisoquinolin-1-one]
0.001 to 0.1 µM	CC(C)(C)OC(=O)N1CCCN(c2ccc3c(c2)CCN(C[C@H](O)CN2CCc4ccccc4C2)C3=O)CC1 [Example 78, tert-butyl 4-[2-[(2R)-3-(3,4-dihydro-1H-isoquinolin-2-yl)-2-hydroxy-propyl]-1-oxo-3,4-dihydroisoquinolin-6-yl]-1,4-diazepane-1-carboxylate]
0.001 to 0.1 µM	CC1CN(c2ccc3c(c2)CCN(C[C@H](O)CN2CCc4ccccc4C2)C3=O)CC(C)N1 (stereo partly drawn) [Example 29, 2-[(2R)-3-(3,4-dihydro-1H-isoquinolin-2-yl)-2-hydroxy-propyl]-6-(3,5-dimethylpiperazin-1-yl)-3,4-dihydroisoquinolin-1-one]
0.001 to 0.1 µM	CC(C)(C)C(=O)N1CCN(c2ccc3c(c2)CCN(C[C@H](O)CN2CCc4ccccc4C2)C3=O)CC1 [Example 71, 2-[(2R)-3-(3,4-dihydro-1H-isoquinolin-2-yl)-2-hydroxy-propyl]-6-[4-(2,2-dimethylpropanoyl)piperazin-1-yl]-3,4-dihydroisoquinolin-1-one]

Reference: patent publication US12331035B2, “Bicyclic compound and use thereof” (SK BIOPHARMACEUTICALS CO., LTD., priority 2019, dated 2025)
